Test results from paper PMC11435058, “Synthesis of New Thiazole-Privileged Chalcones as Tubulin Polymerization Inhibitors with Potential Anticancer Activities” (Pharmaceuticals, 2024).
pIC50: −log10 of the molar value.

Experiments:
[1] = test system: SN12C; assay: NCI-60 anticancer screen (SRB; single dose and five doses); conditions: Homo sapiens; for activity at 10 µM: 48 h, read-out: Growth Percentage; for CC50: read-out: LC50; for IC (TGI): read-out: TGI
[2] = test system: NCI-H23; assay: as above; conditions: Homo sapiens; for activity at 10 µM: NCI-H23, 48 h, read-out: Growth Percentage; for GI50 / pIC50: NCI-H23; for CC50: NCI-H23, read-out: LC50; for IC (TGI): NCI-H23, read-out: TGI
[3] = test system: SF-295; assay: as above; conditions: Homo sapiens; for activity at 10 µM: SF-295, 48 h, read-out: Growth Percentage; for GI50 / pIC50: SF-295; for CC50: SF-295, read-out: LC50; for IC (TGI): SF-295, read-out: TGI
[4] = test system: IGROV1; assay: as above; conditions: Homo sapiens; for activity at 10 µM: IGROV-1, 48 h, read-out: Growth Percentage; for GI50 / pIC50: IGROV-1; for CC50: IGROV-1, read-out: LC50; for IC (TGI): IGROV-1, read-out: TGI
[5] = test system: NCI-H460; assay: as above; conditions: Homo sapiens; for activity at 10 µM: NCI-H460, 48 h, read-out: Growth Percentage; for GI50 / pIC50: NCI-H460; for CC50: NCI-H460, read-out: LC50; for IC (TGI): NCI-H460, read-out: TGI
[6] = test system: OVCAR-8; assay: NCI-60 anticancer screen (SRB; single dose and five doses); conditions: Homo sapiens; for activity at 10 µM: OVCAR-8, 48 h, read-out: Growth Percentage; for GI50 / pIC50: OVCAR-8; for CC50: OVCAR-8, read-out: LC50; for IC (TGI): OVCAR-8, read-out: TGI
[7] = test system: HCC-2998; assay: as above; conditions: for activity at 10 µM / GI50 / pIC50 / CC50: Homo sapiens; for activity at 10 µM: HCC 2998, 48 h, read-out: Growth Percentage; for GI50 / pIC50: HCC 2998; for CC50: HCC 2998, read-out: LC50; for TGI: five-dose, Colon Cancer HCC-2998
[8] = test system: tubulin; assay: In vitro tubulin polymerization inhibition assay; assay type: biochemical; conditions: 4 mg/mL tubulin, 37°C, absorbance at 340 nm
Method: 4.2.2. In Vitro Tubulin Polymerization Inhibition Assay.
2p, and the reference drug CD -4) with the microtubule system. Specifically, the in vitro inhibition of tubulin polymerization was evaluated for these compounds. The standard tubulin polymerization reaction was carried out, containing 100 μL of 4 mg/mL tubulin in a buffer solution of 80 mM PIPES (pH 6.9), 0.5 mM EGTA, 2 mM MgCl2, and 1 mM GTP. Polymerization was initiated by incubating the reaction […]
Under these conditions, polymerization typically reaches a maximum absorbance of […]
growth, and steady state. In this experimental set up, an absorbance of 0.1 at 340 nm corresponds to approximately 1 mg/mL of polymerized tubulin, meaning that around […]
40% of the tubulin is polymerized, allowing for the detection of both enhancers and inhibitors of polymerization. The inhibitory effect of each compound on tubulin polymerization was quantified by determining the IC50 values, which were reported as the mean ± standard deviation from three independent experiments. […]

Row | SMILES | activity at 10 µM [1] [%] | activity at 10 µM [2] [%] | activity at 10 µM [3] [%] | activity at 10 µM [4] [%] | activity at 10 µM [5] [%] | melting point [°C] | activity at 10 µM [6] [%] | activity at 10 µM [7] [%] | GI50 [1] [nM] | CC50 [1] [µM] | IC (TGI) [1] [µM] | GI50 [2] [µM] | CC50 [2] [µM] | IC (TGI) [2] [µM] | GI50 [3] [µM] | CC50 [3] [µM] | IC (TGI) [3] [µM] | pIC50 [8] | GI50 [4] [µM] | CC50 [4] [µM] | also measured
1 | COc1ccc(/C=C/C(=O)c2sc(=S)[nH]c2C)cc1OC [2o, (E)-3-(3,4-Dimethoxyphenyl)-1-(4-Methyl-2-Thioxo-2,3-Dihydrothiazol-5-yl)Prop-2-En-1-One] | 45.4 | 65.1 | 66.5 | 69.5 | 40 | 245 to 247 | 34.3 | 41.7 | – | – | – | – | – | – | – | – | – | – | – | – | –
2 | Cc1[nH]c(=S)sc1C(=O)/C=C/c1cccc([N+](=O)[O-])c1 [2h, (E)-1-(4-Methyl-2-Thioxo-2,3-Dihydrothiazol-5-yl)-3-(3-Nitrophenyl)Prop-2-En-1-One] | -25.6 | -72.8 | 4.14 | 10.2 | -30.7 | – | 13.4 | -86.7 | 2690 | 33.1 | 10.2 | 5.37 | 45.7 | 18.2 | 3.63 | 39.8 | 14.8 | 4.90 | 3.02 | 47.9 | pIC50 [1]: 5.36; pIC50 [2]: 5.00; pIC50 [3]: 5.06; pIC50 [4]: 5.31; IC (TGI) [4]: 12.3 µM; GI50 [5]: 3.63 µM; pIC50 [5]: 5.37; CC50 [5]: 55 µM; IC (TGI) [5]: 13.8 µM; GI50 [6]: 3310 nM; pIC50 [6]: 5.34; CC50 [6]: 38 µM; IC (TGI) [6]: 11.8 µM; GI50 [7]: 2000 nM; pIC50 [7]: 5.44; CC50 [7]: 11.8 µM; TGI [7]: 4.57 µM
3 | Cc1[nH]c(=S)sc1C(=O)/C=C/c1ccc(N(C)C)cc1 [2k, (E)-3-(4-(Dimethylamino)Phenyl)-1-(4-Methyl-2-Thioxo-2,3-Dihydrothiazol-5-yl)Prop-2-En-1-One] | 75.7 | 71.1 | 79.8 | 82.3 | 85.7 | 249 to 251 | 83.4 | 95.3 | – | – | – | – | – | – | – | – | – | – | – | – | –
4 | COc1cc(/C=C/C(=O)c2sc(=S)[nH]c2C)cc(OC)c1OC [2p, (E)-1-(4-Methyl-2-Thioxo-2,3-Dihydrothiazol-5-yl)-3-(3,4,5-Trimethoxyphenyl)Prop-2-En-1-One] | 7.3 | 7.27 | 42.3 | – | -1.34 | – | 4.32 | 19 | 2290 | 46.8 | 9.55 | 2.95 | 44.7 | 10.5 | 5.5 | 66.1 | 21.4 | 4.60 | 3.31 | > 100 | pIC50 [1]: 5.41; pIC50 [2]: 5.28; pIC50 [3]: 4.84; pIC50 [4]: 5.24; IC (TGI) [4]: 13.8 µM; GI50 [5]: 2.14 µM; pIC50 [5]: 5.48; CC50 [5]: 44.7 µM; IC (TGI) [5]: 5.62 µM; GI50 [6]: 2140 nM; pIC50 [6]: 5.45; CC50 [6]: 45.7 µM; IC (TGI) [6]: 5.5 µM; GI50 [7]: 5130 nM; pIC50 [7]: 4.93; CC50 [7]: 44.7 µM; TGI [7]: 17.38 µM
5 | Cc1ccc(/C=C/C(=O)c2sc(=S)[nH]c2C)cc1 [2j, (E)-1-(4-Methyl-2-Thioxo-2,3-Dihydrothiazol-5-yl)-3-(p-Tolyl)Prop-2-En-1-One] | 62.3 | 68.5 | 83.4 | 83.4 | 53.1 | 241 to 243 | 17.3 | 77.2 | – | – | – | – | – | – | – | – | – | – | – | – | –
6 | Cc1[nH]c(=S)sc1C(=O)/C=C/c1ccc(Br)cc1 [2g, (E)-3-(4-Bromophenyl)-1-(4-Methyl-2-Thioxo-2,3-Dihydrothiazol-5-yl)Prop-2-En-1-One] | 19.2 | 65 | 90.4 | 37.1 | 39.1 | – | -34.1 | 3.23 | 3150 | 36.8 | 13.1 | 8.23 | 48 | 21.3 | 12.7 | 52.7 | 25.8 | 4.73 | 3.29 | 53.4 | IC (TGI) [4]: 11.9 µM; GI50 [5]: 14.3 µM; CC50 [5]: 80.9 µM; IC (TGI) [5]: 34.1 µM; GI50 [6]: 2860 nM; CC50 [6]: 37.1 µM; IC (TGI) [6]: 8.77 µM; GI50 [7]: 2720 nM; CC50 [7]: 31.6 µM; TGI [7]: 9.62 µM
7 | Cc1[nH]c(=S)sc1C(=O)/C=C/c1ccccc1Cl [2d, (E)-3-(2-Chlorophenyl)-1-(4-Methyl-2-Thioxo-2,3-Dihydrothiazol-5-yl)Prop-2-En-1-One] | 80 | 91.8 | 82.5 | 91.9 | 82.2 | 240 to 242 | 85.4 | 132 | – | – | – | – | – | – | – | – | – | – | – | – | –
8 | COc1cccc(/C=C/C(=O)c2sc(=S)[nH]c2C)c1OC [2m, (E)-3-(2,3-Dimethoxyphenyl)-1-(4-Methyl-2-Thioxo-2,3-Dihydrothiazol-5-yl)Prop-2-En-1-One] | 45 | 86.5 | 26.3 | 73.9 | 40.1 | 239 to 240 | 44.6 | 79.8 | – | – | – | – | – | – | – | – | – | – | – | – | –
9 | Cc1[nH]c(=S)sc1C(=O)/C=C/c1cccc(Cl)c1 [2e, (E)-3-(3-Chlorophenyl)-1-(4-Methyl-2-Thioxo-2,3-Dihydrothiazol-5-yl)Prop-2-En-1-One] | 12 | 18 | 41.8 | 34 | 12.1 | – | 10.4 | 13.9 | 2000 | 8.91 | 4.27 | 2.09 | 12.9 | 4.68 | 4.37 | 43.6 | 17 | 5.31 | 2.45 | > 100 | pIC50 [1]: 5.45; pIC50 [2]: 5.44; pIC50 [3]: 4.94; pIC50 [4]: 5.38; IC (TGI) [4]: 6.46 µM; GI50 [5]: 2.75 µM; pIC50 [5]: 5.45; CC50 [5]: 45.7 µM; IC (TGI) [5]: 7.59 µM; GI50 [6]: 2690 nM; pIC50 [6]: 5.41; CC50 [6]: > 100 µM; IC (TGI) [6]: 7.59 µM; GI50 [7]: 2570 nM; pIC50 [7]: 5.36; CC50 [7]: 28.2 µM
10 | Cc1[nH]c(=S)sc1C(=O)/C=C/c1ccccc1 [2a, (E)-1-(4-Methyl-2-Thioxo-2,3-Dihydrothiazol-5-yl)-3-Phenylprop-2-En-1-One] | 66.1 | 77.5 | 88.9 | 81.8 | 56.7 | 245 to 247 | 65.8 | 91.3 | – | – | – | – | – | – | – | – | – | – | – | – | –
11 | COc1ccc(/C=C/C(=O)c2sc(=S)[nH]c2C)cc1 [2l, (E)-3-(4-Methoxyphenyl)-1-(4-Methyl-2-Thioxo-2,3-Dihydrothiazol-5-yl)Prop-2-En-1-One] | 74.9 | 81.8 | 83.5 | 89.1 | 85.6 | 246 to 248 | 76.9 | 101 | – | – | – | – | – | – | – | – | – | – | – | – | –
